System: moderate-to-severe chronic spontaneous urticaria (CSU)
Assay: Phase 2 CSU study: urticaria activity score over 7 days (UAS7)
Assay type: in vivo, human
Conditions: ITT
Description: The study comprises a 12 week, randomized, double-blind, placebo-controlled, multi-center, dose-ranging efficacy and safety phase, followed by a 40 week open label extension (OLE) phase (see FIG. 1). The study consists of three phases and an optional OLE phase. […] Clinically, CSU is characterized by the spontaneous and recurrent appearance of pruritic hives. The proposed primary endpoints were the UAS7 at Week 12 in EU and EU reference countries and the ISS7 in the US. Regardless of where a participant was from, all assessments were the same. The UAS7 score is a composite score containing both the HSS7 and the ISS7. This allowed a global assessment of the two key components of urticaria: hives and itch. […] The UAS is a validated PRO measure. […] The daily UAS scores range from 0 to 6 point/day. […] Patients were to complete the UAS using the e-diary. […] The following secondary endpoints were to be analyzed using the same approach as for the primary endpoint: • Change from baseline in UAS7 at Week 4 • Change from baseline in UAS7 at Week 12 (for US and US reference countries) • Change from baseline in ISS7 at Week 12 (except US and US reference countries) • Change from baseline in HSS7 at Week 12 The following responder secondary endpoints were to be analyzed using the Cochran-Mantel-Haenszel test adjusted by region: • Proportion of participants with UAS7<6 at Week 12 • Proportion of participants with UAS7=0 at Week 12 Participants who received selected prohibited medications and/or rescue medications were to be considered as non-responders for time points after the medication usage. For other participants, all available data including those collected during the off-treatment period were to be used to determine the responder/non-responder status. Missing data were to be considered as non-responders.

CC(C)(C=C(C#N)C(=O)N1CCC[C@@H](n2nc(-c3ccc(Oc4ccccc4)cc3F)c3c(N)ncnc32)C1)N1CCN(C2COC2)CC1 [rilzabrutinib, (R)-2-[3-[4-amino-3-(2-fluoro-4-phenoxy-phenyl)pyrazolo[3,4-d]pyrimidin-1-yl]piperidine-1-carbonyl]-4-methyl-4-[4-(oxetan-3-yl)piperazin-1-yl]pent-2-enenitrile]
Non-responder n (%), UAS7 ≤6 (400 mg BID, Week 11): 28 (68.3) n (%) | OR for rilzabrutinib vs. placebo, UAS7 = 0 (400 mg BID, Week 11): 2.892 | OR for rilzabrutinib vs. placebo, UAS7 ≤6 (400 mg BID, Week 11): 1.991 | RRD (%) for rilzabrutinib vs. placebo, UAS7 = 0 (400 mg BID, Week 11): 8.2 % | RRD (%) for rilzabrutinib vs. placebo, UAS7 ≤6 (400 mg BID, Week 11): 11.8 % | Responder n (%), UAS7 = 0 (400 mg BID, Week 11): 6 (14.6) n (%) | Responder n (%), UAS7 ≤6 (400 mg BID, Week 11): 13 (31.7) n (%) | Imputed non-responder n (%), UAS7 = 0 (400 mg BID, Week 12): 14 (34.1) n (%) | Imputed non-responder n (%), UAS7 ≤6 (400 mg BID, Week 12): 14 (34.1) n (%) | Non-responder n (%), UAS7 = 0 (400 mg BID, Week 12): 33 (80.5) n (%) | Non-responder n (%), UAS7 ≤6 (400 mg BID, Week 12): 31 (75.6) n (%) | OR for rilzabrutinib vs. placebo, UAS7 = 0 (400 mg BID, Week 12): 1.511 | OR for rilzabrutinib vs. placebo, UAS7 ≤6 (400 mg BID, Week 12): 2.067 | RRD (%) for rilzabrutinib vs. placebo, UAS7 ≤6 (400 mg BID, Week 12): 10.0 % | Responder n (%), UAS7 = 0 (400 mg BID, Week 12): 8 (19.5) n (%) | Responder n (%), UAS7 ≤6 (400 mg BID, Week 12): 10 (24.4) n (%) | Imputed non-responder n (%), UAS7 = 0 (400 mg QPM, Week 1): 0 n (%) | Imputed non-responder n (%), UAS7 ≤6 (400 mg QPM, Week 1): 0 n (%) | Non-responder n (%), UAS7 = 0 (400 mg QPM, Week 1): 38 (100) n (%) | Non-responder n (%), UAS7 ≤6 (400 mg QPM, Week 1): 36 (94.7) n (%) | OR for rilzabrutinib vs. placebo, UAS7 = 0 (400 mg QPM, Week 1): 0.000 (NE, | OR for rilzabrutinib vs. placebo, UAS7 ≤6 (400 mg QPM, Week 1): 1.099 | RRD (%) for rilzabrutinib vs. placebo, UAS7 = 0 (400 mg QPM, Week 1): −2.6 % | RRD (%) for rilzabrutinib vs. placebo, UAS7 ≤6 (400 mg QPM, Week 1): 0.4 % | Responder n (%), UAS7 = 0 (400 mg QPM, Week 1): 0 n (%) | Responder n (%), UAS7 ≤6 (400 mg QPM, Week 1): 2 (5.3) n (%) | Imputed non-responder n (%), UAS7 = 0 (400 mg QPM, Week 2): 0 n (%) | Imputed non-responder n (%), UAS7 ≤6 (400 mg QPM, Week 2): 0 n (%) | Non-responder n (%), UAS7 = 0 (400 mg QPM, Week 2): 38 (100) n (%) | Non-responder n (%), UAS7 ≤6 (400 mg QPM, Week 2): 37 (97.4) n (%) | OR for rilzabrutinib vs. placebo, UAS7 = 0 (400 mg QPM, Week 2): 0.000 (NE, | OR for rilzabrutinib vs. placebo, UAS7 ≤6 (400 mg QPM, Week 2): 0.517 | RRD (%) for rilzabrutinib vs. placebo, UAS7 = 0 (400 mg QPM, Week 2): −2.6 % | RRD (%) for rilzabrutinib vs. placebo, UAS7 ≤6 (400 mg QPM, Week 2): −2.3 % | Responder n (%), UAS7 = 0 (400 mg QPM, Week 2): 0 n (%) | Responder n (%), UAS7 ≤6 (400 mg QPM, Week 2): 1 (2.6) n (%) | Imputed non-responder n (%), UAS7 = 0 (400 mg QPM, Week 3): 0 n (%) | Imputed non-responder n (%), UAS7 ≤6 (400 mg QPM, Week 3): 0 n (%) | Non-responder n (%), UAS7 = 0 (400 mg QPM, Week 3): 38 (100) n (%) | Non-responder n (%), UAS7 ≤6 (400 mg QPM, Week 3): 36 (94.7) n (%) | OR for rilzabrutinib vs. placebo, UAS7 = 0 (400 mg QPM, Week 3): 0.000 (NE, | OR for rilzabrutinib vs. placebo, UAS7 ≤6 (400 mg QPM, Week 3): 0.553 | RRD (%) for rilzabrutinib vs. placebo, UAS7 = 0 (400 mg QPM, Week 3): −2.6 % | RRD (%) for rilzabrutinib vs. placebo, UAS7 ≤6 (400 mg QPM, Week 3): −3.9% | Responder n (%), UAS7 = 0 (400 mg QPM, Week 3): 0 n (%) | Responder n (%), UAS7 ≤6 (400 mg QPM, Week 3): 2 (5.3) n (%) | Imputed non-responder n (%), UAS7 = 0 (400 mg QPM, Week 4): 1 (2.6) n (%) | Imputed non-responder n (%), UAS7 ≤6 (400 mg QPM, Week 4): 1 (2.6) n (%) | Non-responder n (%), UAS7 = 0 (400 mg QPM, Week 4): 38 (100) n (%) | Non-responder n (%), UAS7 ≤6 (400 mg QPM, Week 4): 36 (94.7) n (%) | OR for rilzabrutinib vs. placebo, UAS7 = 0 (400 mg QPM, Week 4): 0.000 (NE, | OR for rilzabrutinib vs. placebo, UAS7 ≤6 (400 mg QPM, Week 4): 0.432 | RRD (%) for rilzabrutinib vs. placebo, UAS7 = 0 (400 mg QPM, Week 4): −4.8 % | RRD (%) for rilzabrutinib vs. placebo, UAS7 ≤6 (400 mg QPM, Week 4): −6.0% | Responder n (%), UAS7 = 0 (400 mg QPM, Week 4): 0 n (%) | Responder n (%), UAS7 ≤6 (400 mg QPM, Week 4): 2 (5.3) n (%) | Imputed non-responder n (%), UAS7 = 0 (400 mg QPM, Week 5): 2 (5.3) n (%) | Imputed non-responder n (%), UAS7 ≤6 (400 mg QPM, Week 5): 2 (5.3) n (%) | Non-responder n (%), UAS7 = 0 (400 mg QPM, Week 5): 37 (97.4) n (%) | Non-responder n (%), UAS7 ≤6 (400 mg QPM, Week 5): 36 (94.7) n (%) | OR for rilzabrutinib vs. placebo, UAS7 = 0 (400 mg QPM, Week 5): 1.000 | OR for rilzabrutinib vs. placebo, UAS7 ≤6 (400 mg QPM, Week 5): 1.065 | RRD (%) for rilzabrutinib vs. placebo, UAS7 = 0 (400 mg QPM, Week 5): 0.0 % | RRD (%) for rilzabrutinib vs. placebo, UAS7 ≤6 (400 mg QPM, Week 5): 0.3 % | Responder n (%), UAS7 = 0 (400 mg QPM, Week 5): 1 (2.6) n (%) | Responder n (%), UAS7 ≤6 (400 mg QPM, Week 5): 2 (5.3) n (%)
